Measured values from US20130197032A1, “[…] COMPOUNDS FOR THE TREATMENT OF NEUROLOGICAL AND […] DISORDERS” (A. CARLSSON RESEARCH AB, priority 2010, published 2013).

How the values were obtained:
[1] = target: T1, human M2 receptor (Homo sapiens, UniProt P08172); assay: R-SAT assay M2; format: cell-based; settings: Table 3, M2; percent response of reference Carbachol
T1 construct: expressed in transfected cells; host or cells: NIH/3T3
T1 sequence (P08172 1-466): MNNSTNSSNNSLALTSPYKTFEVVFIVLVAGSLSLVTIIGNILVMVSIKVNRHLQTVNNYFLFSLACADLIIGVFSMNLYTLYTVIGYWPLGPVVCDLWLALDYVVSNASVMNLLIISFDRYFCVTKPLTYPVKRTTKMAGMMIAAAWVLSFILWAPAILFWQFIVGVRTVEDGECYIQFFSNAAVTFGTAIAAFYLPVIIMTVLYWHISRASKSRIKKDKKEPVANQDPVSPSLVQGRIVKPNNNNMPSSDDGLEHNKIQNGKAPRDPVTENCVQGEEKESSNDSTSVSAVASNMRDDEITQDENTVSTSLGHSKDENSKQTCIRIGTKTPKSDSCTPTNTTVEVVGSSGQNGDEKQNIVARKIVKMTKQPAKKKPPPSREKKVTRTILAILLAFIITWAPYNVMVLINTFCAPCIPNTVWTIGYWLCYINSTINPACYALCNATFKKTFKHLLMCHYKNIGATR

[2] = target: T2, human 5-HT1E receptor (Homo sapiens, UniProt P28566); assay: R-SAT assay 5-HT1E; format: cell-based; settings: Table 3, 5-HT1E; percent response of reference BRL 54443
T2 construct: expressed in transfected cells; host or cells: NIH/3T3
T2 sequence (P28566 whole entry): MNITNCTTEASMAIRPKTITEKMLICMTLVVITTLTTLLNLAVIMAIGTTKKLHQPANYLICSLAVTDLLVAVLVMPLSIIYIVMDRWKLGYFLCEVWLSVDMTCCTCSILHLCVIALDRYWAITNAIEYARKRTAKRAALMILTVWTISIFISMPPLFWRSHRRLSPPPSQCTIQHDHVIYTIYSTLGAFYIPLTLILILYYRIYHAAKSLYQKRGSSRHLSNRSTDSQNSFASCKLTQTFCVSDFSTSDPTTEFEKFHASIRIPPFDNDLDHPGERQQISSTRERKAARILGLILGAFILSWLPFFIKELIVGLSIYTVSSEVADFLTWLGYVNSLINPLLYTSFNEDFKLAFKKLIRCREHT

[3] = target: T3, human 5-HT1D receptor (Homo sapiens, UniProt P28221); assay: R-SAT assay 5-HT1D; format: cell-based; settings: Table 3, 5-HT1D; for Eff (%): percent response of reference 5-CT
T3 construct: expressed in transfected cells; host or cells: NIH/3T3
T3 sequence (P28221 whole entry): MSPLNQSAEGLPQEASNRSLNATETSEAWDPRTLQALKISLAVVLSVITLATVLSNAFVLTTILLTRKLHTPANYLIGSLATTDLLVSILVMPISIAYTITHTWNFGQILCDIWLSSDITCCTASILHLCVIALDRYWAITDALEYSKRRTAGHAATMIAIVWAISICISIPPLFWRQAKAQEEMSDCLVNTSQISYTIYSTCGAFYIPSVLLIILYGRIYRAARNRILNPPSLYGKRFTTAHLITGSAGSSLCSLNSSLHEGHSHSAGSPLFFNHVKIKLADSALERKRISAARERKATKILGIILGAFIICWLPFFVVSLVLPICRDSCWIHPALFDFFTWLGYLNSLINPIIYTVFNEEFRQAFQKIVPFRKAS

[4] = system: reserpine-pretreated mice; assay: Motor activity in monoamine-depleted (reserpine-pretreated) mice, video tracking; settings: for motor activity (distance moved, DM 1.5): reserpine 10 mg/kg ip 20 h prior, test drug ip just prior to recording, first 30 minutes, vs reserpine only group
[5] = target: T4, human alpha2C receptor (Homo sapiens, UniProt P18825); assay: R-SAT assay α2C; format: cell-based; settings: Table 3, α2C; percent response of reference UK 14,306
T4 construct: expressed in transfected cells; host or cells: NIH/3T3 cells, transient transfection, pSI vector
T4 sequence (P18825 1-462): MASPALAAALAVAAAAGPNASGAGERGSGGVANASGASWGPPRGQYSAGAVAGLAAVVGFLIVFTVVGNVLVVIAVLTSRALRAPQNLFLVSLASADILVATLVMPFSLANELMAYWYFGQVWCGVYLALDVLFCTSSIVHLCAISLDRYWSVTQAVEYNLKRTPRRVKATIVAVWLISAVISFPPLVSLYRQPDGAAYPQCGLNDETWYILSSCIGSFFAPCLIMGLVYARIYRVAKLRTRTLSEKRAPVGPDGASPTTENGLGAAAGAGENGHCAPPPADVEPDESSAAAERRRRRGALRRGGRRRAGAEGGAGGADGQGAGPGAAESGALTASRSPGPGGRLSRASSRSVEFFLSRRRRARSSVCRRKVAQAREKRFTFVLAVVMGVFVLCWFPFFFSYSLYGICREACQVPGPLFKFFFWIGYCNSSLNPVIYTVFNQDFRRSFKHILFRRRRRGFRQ

[6] = target: T5, human alpha2B receptor (Homo sapiens, UniProt P18089); assay: R-SAT assay α2B; format: cell-based; settings: Table 3, α2B; percent response of reference UK 14,306
T5 construct: expressed in transfected cells; host or cells: NIH/3T3 cells, transient transfection, pSI vector
T5 sequence (P18089 whole entry): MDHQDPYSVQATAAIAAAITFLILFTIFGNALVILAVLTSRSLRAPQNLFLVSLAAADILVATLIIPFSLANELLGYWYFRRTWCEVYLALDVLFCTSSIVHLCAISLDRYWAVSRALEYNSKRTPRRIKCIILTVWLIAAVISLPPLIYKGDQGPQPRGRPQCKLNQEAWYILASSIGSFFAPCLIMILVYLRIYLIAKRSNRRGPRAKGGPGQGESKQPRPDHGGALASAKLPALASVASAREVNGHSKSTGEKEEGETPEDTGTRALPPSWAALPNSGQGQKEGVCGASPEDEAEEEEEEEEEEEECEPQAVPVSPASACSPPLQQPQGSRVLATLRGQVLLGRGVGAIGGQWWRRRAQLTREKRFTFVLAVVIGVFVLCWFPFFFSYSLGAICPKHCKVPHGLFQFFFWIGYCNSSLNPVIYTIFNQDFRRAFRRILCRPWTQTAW

[7] = target: T6, human M4 receptor (Homo sapiens, UniProt P08173); assay: R-SAT assay M4; format: cell-based; settings: Table 3, M4; percent response of reference Carbachol
T6 construct: expressed in transfected cells; host or cells: NIH/3T3
T6 sequence (P08173 1-479): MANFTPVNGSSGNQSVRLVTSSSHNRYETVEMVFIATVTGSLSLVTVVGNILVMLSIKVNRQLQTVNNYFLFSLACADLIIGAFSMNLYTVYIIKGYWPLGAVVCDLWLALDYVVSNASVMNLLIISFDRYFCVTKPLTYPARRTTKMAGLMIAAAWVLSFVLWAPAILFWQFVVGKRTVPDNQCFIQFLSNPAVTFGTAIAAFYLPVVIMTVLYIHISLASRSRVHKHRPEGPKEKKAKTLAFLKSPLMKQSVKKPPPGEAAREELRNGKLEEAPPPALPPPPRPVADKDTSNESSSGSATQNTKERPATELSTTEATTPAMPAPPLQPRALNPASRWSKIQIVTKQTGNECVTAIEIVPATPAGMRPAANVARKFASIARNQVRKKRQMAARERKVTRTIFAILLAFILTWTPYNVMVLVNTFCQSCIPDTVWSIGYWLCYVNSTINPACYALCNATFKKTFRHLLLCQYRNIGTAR

[8] = target: T7, human M1 receptor (Homo sapiens, UniProt P11229); assay: R-SAT assay M1; format: cell-based; settings: Table 3, M1; percent response of reference Carbachol
T7 construct: expressed in transfected cells; host or cells: NIH/3T3
T7 sequence (P11229 whole entry): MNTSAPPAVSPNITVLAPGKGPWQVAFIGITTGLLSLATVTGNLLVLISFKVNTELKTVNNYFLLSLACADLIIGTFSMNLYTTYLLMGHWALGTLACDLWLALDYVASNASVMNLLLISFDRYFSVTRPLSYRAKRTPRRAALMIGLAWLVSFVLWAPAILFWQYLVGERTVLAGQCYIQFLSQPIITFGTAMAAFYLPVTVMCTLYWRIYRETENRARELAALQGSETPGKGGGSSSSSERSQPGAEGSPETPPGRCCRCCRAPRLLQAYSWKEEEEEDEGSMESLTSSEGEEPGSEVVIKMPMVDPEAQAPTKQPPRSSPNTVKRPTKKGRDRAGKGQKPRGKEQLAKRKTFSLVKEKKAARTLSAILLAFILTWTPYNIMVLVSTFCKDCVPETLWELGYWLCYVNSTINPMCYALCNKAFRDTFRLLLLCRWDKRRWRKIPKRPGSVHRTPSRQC

[9] = target: T8, human alpha1B receptor (Homo sapiens, UniProt P35368); assay: R-SAT assay α1B; format: cell-based; settings: Table 3, α1B; percent response of reference Phenylephrine
T8 construct: expressed in transfected cells; host or cells: NIH/3T3 cells, transient transfection, pSI vector
T8 sequence (P35368 1-520): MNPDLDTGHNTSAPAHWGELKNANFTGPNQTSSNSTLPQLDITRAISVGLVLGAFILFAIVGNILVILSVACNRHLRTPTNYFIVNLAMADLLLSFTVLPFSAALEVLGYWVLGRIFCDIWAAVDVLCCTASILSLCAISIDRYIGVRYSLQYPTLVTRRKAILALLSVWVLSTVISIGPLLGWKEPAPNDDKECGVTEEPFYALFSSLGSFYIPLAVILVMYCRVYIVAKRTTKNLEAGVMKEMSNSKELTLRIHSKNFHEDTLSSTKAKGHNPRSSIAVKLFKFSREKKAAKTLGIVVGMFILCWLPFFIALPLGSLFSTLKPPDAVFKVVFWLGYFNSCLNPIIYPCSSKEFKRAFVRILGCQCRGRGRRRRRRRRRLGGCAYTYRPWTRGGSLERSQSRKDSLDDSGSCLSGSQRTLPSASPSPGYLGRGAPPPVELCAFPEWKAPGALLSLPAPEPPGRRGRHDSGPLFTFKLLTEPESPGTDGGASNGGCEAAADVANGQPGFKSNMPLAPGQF

Row | SMILES | Eff (%) [1] [%] | Eff (%) [2] [%] | Eff (%) [3] [%] | motor activity (distance moved, DM 1.5) [4] | effect on motor activity compared with the (−)-enantiomer ([4]; reserpine-pretreated mice, 250 μmol/kg ip, p<0.01) | Eff (%) [5] [%] | Eff (%) [6] [%] | Eff (%) [7] [%] | Eff (%) [8] [%] | Eff (%) [9] [%] | EC50 ([3]; negative logarithm of EC50 in molar) [µM]
1 | CCCN1CCC[C@H](c2cccc(S(C)(=O)=O)c2)C1 [(+)-OSU6162, (3R)-3-[3-(methylsulfonyl)phenyl]-1-propylpiperidine] | 22 | 5 | 28 | statistically significant increase in motor activity at 125, 250 and 500 μmol/kg, with a peak response at 250 μmol/kg | much larger effect on motor activity | 13 | 8 | 4 | 11 | 10 | 
2 | CCCN1CCC[C@@H](c2cccc(S(C)(=O)=O)c2)C1 [(−)-OSU6162, (3S)-3-[3-(methylsulfonyl)phenyl]-1-propylpiperidine] | 9 | 5 | 132 | statistically significant increase in motor activity at 125 and 250 μmol/kg |  | 6 | 13 | 2 | 5 | −1 | 5.01
